Data as given in patent US4136163A, “P-Menthane carboxamides having a physiological cooling effect” (Wilkinson Sword Limited, priority 1971, dated 1979).

How the values were obtained:
[1] = literature; cited from earlier work
cold receptors [2] = assay: Cooling effect of consumer product in the mouth / on the tongue; type: in vivo, human
Experimental: To the compositions was added 0.1% of N-n-propyl-p-menthane-3-carboxamide.
Shortly before completion of the blending operation 0.5% by weight of N-(p-menth-3-oyl) morpholine was added to the blender. […]
N-(2-hydroxy-n-propyl)-p-menthane-3-carboxamide was added to a proprietary gin in an amount of 0.08%.
99.5% sucrose and 0.5% citric acid were carefully fused together in the presence of a trace of water. Just before casting the melt onto a chilled plate 0.13% of N,N-dimethyl-p-menthane-3-carboxamide were repidly stirred in. The melt was then cast.
Water was added to icing sugar at 50° C to form a stiff paste. 0.05% of N-ethyl-p-menthane-3-carboxamide was then stirred into a paste and the mixture allowed to set. […]
A proprietary ice cream mixture was mixed in accordance with the manufactures instructions. Shortly before freezing N-p-menth-3-oyl-β-aminopropionic acid n-propyl ester was added in an amount of 0.05%. […]

cold receptors [3] = assay: Cooling effect of consumer product applied to skin (face, scalp, lips, forehead); type: in vivo, human
Experimental: Into two separate samples of the base lotion were added 2.0% by weight based on the total composition of N-ethyl-p-menthane-3-carboxamide and N,N-dimethyl-p-menthane-3-carboxamide, each into a different one of the two samples.
To the recipe was added 3.0%, based on the total composition of N-p-menth-3-oylglycine methyl ester. […]
Sodium lauryl ether sulphate, 10 g., was dispersed in 90 g. water in a high speed mill. To the dispersion was added 3.3% by weight of N-(2-hydroxy-n-propyl)-p-menthane-3-carboxamide. […]
The sodium stearate was dissolved by stirring in a warm mixture of the ethanol propylene glycol and water. To the solution was added the perfume and 3.0% of N-(2-hydroxy-n-propyl)-p-menthane-3-carboxamide and the mixture then allowed to solidify into a waxy cake. […]
This Example illustrates now the physiological cooling effect of the compounds of this invention varies according to the locality of application.
In the course of grinding there was added 3.0% of N-n-propyl-p-menthane-3-carboxamide. […]
To this liquid was added 1.0% of N-ethyl-p-menthane-3-carboxamide. A paper tissue was then soaked in the liquid.

cold receptors [4] = assay: Threshold test: minimum quantity of compound on filter paper square on tongue giving a noticeable cooling effect, selected panel of 6 people; type: in vivo, human; conditions: panel of 6 people, cooling reported 50% of the time
Text: For example, a controlling factor in the onset of cooling effect, its intensity and longevity will be the rate of penetration of the compounds through the epidermis and this will vary in different locations on the human body.
It will also benoted that the described test procedure is done on a statistical basis. This is necessary since sensitivity to these compounds will vary not only from compound to compound and from one part of the body to another, but also from one individual to another. Tests of this nature are commonly used in the testing of the organoleptic properties, e.g. taste, smell etc. of organic and inorganic compounds, see Kirk-Othmer: Encyclopedia of Chemical Technology, 2nd. Ed.
The following test procedure is aimed at determining the minimum quantity of the test compound required to produce a noticeable cooling effect on a person of average sensitivity, this minimum quantity being termed the threshold for that particular compound. The tests are carried out on a selected panel of 6 people of median sensitivity to 1-menthol.
To select a test panel of average sensitivity the following procedure is used. Known quantities of 1-menthol in solution in petroleum ether (bp.40-60) are placed on 5 mm. squares of filter paper, whereafter the solvent is allowed to evaporate. A panel of observers is enrolled and asked to place one impregnated square at a time on the tongue and to report on the presence or absence of a cooling effect. […] Conveniently, one starts with squares containing 2.0 μg. 1-menthol, the amount on each successive square being half that of the preceding square, i.e. the second test square will contain 1.0 μg, the third 0.5 μg and so on. Each quantity is tested on the tongue at least 10 times. In this way, the thresholds to cold receptor stimulus by 1-menthol are determined for each individual of the panel, the threshold for each individual being that amount of 1-menthol for which, in a series of not less than 10 test applications, a cooling effect is reported 50% of the time.
To test the activity of compounds according to this invention, the above procedure is repeated using only the 6 selected panel members of average sensitivity to 1-menthol. The individual thresholds for each test compound on each of the 6 selected panel members are determined and averaged. Those compounds whose average threshold on the select test panel is 100 μg or less are regarded as having cooling activity in accordance with this invention.

cold receptors [5] = assay: Cooling effect in the stomach after swallowing tablet; type: in vivo, human; conditions: 0.05%
Text: Added to the mixture during grinding was 0.05% of N-ethyl-p-menthane- 3-carboxamide. After mixing the mixture was pressed into 0.5 g tablets.
Soluble aspirin (calcium acetylsalicylate) tablets were impregnated with 0.05% of N-ethyl-p-menthane-3-carboxamide by absorption in the tablet of a metered drop of an ethanolic solution of the carboxamide.

cold receptors [6] = assay: Cooling effect of eye lotion when used to bathe the eyes; type: in vivo, human; conditions: Example 9, eye lotion, 0.003%, eyeball and eyelids
Experimental: To the formulation was added 0.003%, based on the total composition of N-(2-hydroxyethyl)-p-menthane carboxamide.

[7] = Example 2, after shave lotion, 2.0%, face

For `CC(C)C1CCC(C)C(O)C1O` (centres unmarked) [2,3-p-menthane diol], the “cooling taste or refreshing effect” value [1] is given as “sharp cooling taste”.
In the case of `CC1CCC(C(C)C)C(C(=O)N2CCOCC2)C1` (centres unmarked) [--CH2 CH2 OCH2 CH2 --, N-(p-menth-3-oyl)morpholine], the “cooling effect on mucous membranes of the mouth” value (cold receptors [2]; Example 11, applied to the mucous membranes of the mouth) is reported as “very pronounced”, the cooling effect (cold receptors [2]; Example 11, toothpaste, 0.5%, mouth) is reported as “a strong cooling effect is noticed in the mouth” and the “cooling effect on skin” value (cold receptors [3]; Example 11, applied to the skin as an alcoholic solution) is reported as “relatively weak”. The “Threshold (average minimum quantity to produce a noticeable cooling effect)” value (“Threshold” for short) (cold receptors [4]) was 5.5 µg.
For `CC1CCC(C(C)C)C(C(=O)N(CCO)CCO)C1` (centres unmarked) [--CH2 CH2 OH, --CH2 CH2 OH, N,N-bis(2-hydroxyethyl)-p-menthane-3-carboxamide], the cooling effect (cold receptors [2]; Example 18, chewing gum, 5.0%, mouth) was “marked cooling effect in the mouth” and the “Threshold” value (cold receptors [4]) was 50 µg.
In the case of `CC1CCC(C(C)C)C(C(=O)N(C)C)C1` (centres unmarked) [--CH3, --CH3, N,N-dimethyl-p-menthane-3-carboxamide], the cooling effect (cold receptors [2]; Example 16, boiled sweet, 0.13%, mouth) is reported as “marked cooling effect on the mouth”, the cooling effect (cold receptors [3]; Example 1, aerosol shaving soap, 1.0%, face) is reported as “a fresh cool sensation was distinctly noticeable on the face” and the cooling effect (cold receptors [3]; [7]) is reported as “a clearly noticeable cooling effect became apparent after a short interval of time”. The “Threshold” value (cold receptors [4]) was 1.5 µg.
With `CCNC(=O)C1CC(C)CCC1C(C)C` (centres unmarked) [H, --C2 H5, N-ethyl-p-menthane-3-carboxamide] the cooling effect (cold receptors [2]; Example 12, toothpick, 0.01 mg, tongue) was “a distinct cooling effect is noticeable after a short period of time”, the cooling effect (cold receptors [2]; Example 17, mint sweet, 0.05%, mouth) was “characteristic cooling effect in the mouth of peppermint” and the cooling effect (cold receptors [2]; Example 25, water soluble adhesive on label, 0.025%, tongue) was “a pleasant cooling sensation on the tongue”. The cooling effect (cold receptors [5]; Example 20, indigestion tablet) was “after a short interval of time a noticeable cooling effect in the stomach”, the cooling effect (cold receptors [5]; Example 23, soluble aspirin tablet) was “a quite noticeable cooling effect developed in the stomach after a short interval” and the cooling effect (cold receptors [3]; [7]) was “a clearly noticeable cooling effect became apparent after a short interval of time”. The cooling effect (cold receptors [3]; Example 24, cleansing tissue, 1.0% in liquid, skin) was “a fresh cool sensation developed on the skin after a short interval” and the “Threshold” value (cold receptors [4]) was 0.3 µg.
With `CCCNC(=O)C1CC(C)CCC1C(C)C` (centres unmarked) [H, --C3 H7 (n), N-n-propyl-p-menthane-3-carboxamide] the cooling effect (cold receptors [2]; Example 10, mouthwash concentrate, 0.1%, diluted with approximately 10 times its own volume of water) was “a strong and long lasting cooling effect is obtained in the mouth”, the cooling effect (cold receptors [3]; Example 13, talcum powder, 3.0%) was “freshening and cooling effect” and the “Threshold” value (cold receptors [4]) was 0.8 µg.
In the case of `CC1CCC(C(C)C)C(C(=O)NC(C)(C)CO)C1` (centres unmarked) [H, --C(CH3)2 CH2 OH, N-(1,1-dimethyl-2-hydroxyethyl)-p-menthane-3-carboxamide], the cooling effect (cold receptors [2]; Example 14, soft drink, 0.02% in concentrate, diluted with water) is reported as “pleasantly cool after-effect” and the “Threshold” value (cold receptors [4]) is reported as 0.4 µg.
For `CC1CCC(C(C)C)C(C(=O)NCCO)C1` (centres unmarked) [H, --CH2 CH2 OH, N-(2-hydroxyethyl)-p-menthane carboxamide], the cooling effect (cold receptors [6]) was “a cool fresh sensation is apparent on the eyeball and eyelids” and the “Threshold” value (cold receptors [4]) was 5 µg.
In the case of `CC(O)CNC(=O)C1CC(C)CCC1C(C)C` (centres unmarked) [H, --CH2 CH(OH)CH3, N-(2-hydroxy-n-propyl)-p-menthane-3-carboxamide], the cooling effect (cold receptors [2]; Example 15, gin, 0.08%, mouth) is reported as “a very strong cooling after-effect is obtained in the mouth”, the cooling effect (cold receptors [3]; Example 5, hair shampoo, 3.3%, scalp) is reported as “a fresh, cool sensation is noticed on the scalp” and the cooling effect (cold receptors [3]; Example 7, solid cologne, 3.0%, forehead) is reported as “a very strong and long lasting cooling effect is obtained”. The “Threshold” value (cold receptors [4]) was 5.5 µg.
For `CCC(CC)C(=O)N(C)C` [N,N-Dimethyl 2-ethylbutanamide], the “cooling taste or refreshing effect” value [1] is listed as “refreshing effect”.
In the case of `CCCOC(=O)CCNC(=O)C1CC(C)CCC1C(C)C` (stereo not drawn) [N-p-menth-3-oyl-β-aminopropionic acid n-propyl ester], the cooling effect (cold receptors [2]; Example 19, ice cream, 0.05%) is reported as “a cooling effect is noticeable which persists after the cooling effect attributable to the temperature of the ice cream has disappeared”.
